Data on 13 compounds can be found in ChEMBL document CHEMBL5357018, “Discovery of Malarial Threonyl tRNA Synthetase Inhibitors by Screening of a Focused Fragment Library” (ACS Med Chem Lett, 2024).

The target in one test is T1, threonine--tRNA ligase (Plasmodium falciparum, UniProt Q8IIA4).
T1 sequence (Q8IIA4 whole entry): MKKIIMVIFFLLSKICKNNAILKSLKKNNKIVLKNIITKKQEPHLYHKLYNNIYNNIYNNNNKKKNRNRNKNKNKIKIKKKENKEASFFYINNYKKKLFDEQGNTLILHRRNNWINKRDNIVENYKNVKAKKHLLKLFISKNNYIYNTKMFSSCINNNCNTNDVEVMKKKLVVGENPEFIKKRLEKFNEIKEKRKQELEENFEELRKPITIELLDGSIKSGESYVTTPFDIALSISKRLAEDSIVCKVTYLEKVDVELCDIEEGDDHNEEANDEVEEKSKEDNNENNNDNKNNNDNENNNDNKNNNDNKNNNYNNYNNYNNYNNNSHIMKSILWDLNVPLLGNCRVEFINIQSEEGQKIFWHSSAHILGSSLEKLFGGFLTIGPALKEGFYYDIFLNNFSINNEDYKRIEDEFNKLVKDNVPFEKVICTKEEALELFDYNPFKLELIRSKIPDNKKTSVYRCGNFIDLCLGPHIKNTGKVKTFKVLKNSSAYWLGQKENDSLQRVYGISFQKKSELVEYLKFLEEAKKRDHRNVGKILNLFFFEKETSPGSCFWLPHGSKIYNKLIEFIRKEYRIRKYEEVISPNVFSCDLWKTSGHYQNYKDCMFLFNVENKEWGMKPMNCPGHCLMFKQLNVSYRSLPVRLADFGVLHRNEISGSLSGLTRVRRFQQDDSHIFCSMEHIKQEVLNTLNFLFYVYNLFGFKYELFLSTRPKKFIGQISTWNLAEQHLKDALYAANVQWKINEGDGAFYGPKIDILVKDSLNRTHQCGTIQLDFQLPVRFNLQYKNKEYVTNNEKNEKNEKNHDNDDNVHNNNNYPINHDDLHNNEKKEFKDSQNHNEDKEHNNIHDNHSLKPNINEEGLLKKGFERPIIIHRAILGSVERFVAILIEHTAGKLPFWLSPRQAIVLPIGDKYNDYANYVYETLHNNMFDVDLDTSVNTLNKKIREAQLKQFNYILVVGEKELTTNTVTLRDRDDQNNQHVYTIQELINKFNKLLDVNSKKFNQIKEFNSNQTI
Kind of test: Inhibition of Plasmodium falciparum Threonyl tRNA synthetase.
A word on the IC50: it is the concentration that gives 50% inhibition. Take `C[C@@H](O)[C@H](N)C(=O)NS(=O)(=O)OC[C@H]1O[C@@H](n2cnc3c(N)ncnc32)[C@H](O)[C@@H]1O`: the IC50 amounted to 160 nM.

Compound `C[C@@H](O)[C@H](N)C(=O)NS(=O)(=O)/C=C/c1cccc(-c2cc(N)ncn2)c1` gave an IC50 of 57 nM.

`C[C@@H](O)[C@H](N)C(=O)NS(=O)(=O)/C=C/c1ccccc1`: the IC50 is 33000 nM.

`C[C@@H]1C[C@H](C)C[C@H](C)[C@@H](O)CC(=O)O[C@H]([C@@H]2CCC[C@H]2C(=O)O)C/C=C/C=C(/C#N)[C@H](O)[C@@H](C)C1` [BORRELIDIN] had a half-inhibitory concentration (IC50) of 43 nM.

With `C[C@@H](O)[C@H](N)C(=O)NP(=O)(O)OC[C@@H]1C[C@H](O)[C@H](n2cnc3c(N)ncnc32)O1`, the IC50 worked out at 440 nM.

The next test addresses T1, threonine--tRNA ligase.
A word on the Ki: it is the dissociation constant of the complex between target and ligand, obtained from inhibition or displacement. Higher therefore signals a looser hold on the target. Regarding `C[C@@H]1C[C@H](C)C[C@H](C)[C@@H](O)CC(=O)O[C@H]([C@@H]2CCC[C@H]2C(=O)O)C/C=C/C=C(/C#N)[C@H](O)[C@@H](C)C1` [BORRELIDIN], the Ki came to 160 nM.

A further test has as its target T1, threonine--tRNA ligase. The source holds these as a separate data set.
Description: Inhibition of 6xHis-tag recombinant Plasmodium falciparum threonyl tRNA synthetase expressed in Escherichia using L-threonine and total tRNA by luminescence based assay
For `C[C@@H](O)[C@H](N)C(=O)NS(=O)(=O)Oc1ccc(-c2cc(N)ncn2)cc1`, half-maximal inhibition (IC50) was put at 800 nM.

As to `C[C@@H](O)[C@H](N)C(=O)NS(=O)(=O)Oc1cccc2nn(-c3cc(N)ncn3)cc12`, the IC50 worked out at 700 nM.

Regarding `C[C@@H](O)[C@H](N)C(=O)NS(=O)(=O)c1nc2cc(-c3cc(N)ncn3)ccc2s1`, half-maximal inhibition (IC50) was put at 100 nM.

As to `C[C@@H](O)[C@H](N)C(=O)NS(=O)(=O)Oc1cccc2ccccc12`, the IC50 came to 36000 nM.

The compound `C[C@@H](O)[C@H](N)C(=O)NS(=O)(=O)Oc1ccccc1` registered an IC50 of 51000 nM.

For `C[C@@H](O)[C@H](N)C(=O)NS(=O)(=O)c1nc2ccccc2s1`, it took 71000 nM to reach half-maximal inhibition (IC50).

With `C[C@@H](O)[C@H](N)C(=O)NS(=O)(=O)Oc1cccc2cccnc12`, inhibition was half-maximal at 55000 nM (IC50).

As to `C[C@@H](O)[C@H](N)C(=O)NS(=O)(=O)Oc1ccc2ccccc2c1`, the IC50 was determined as 30000 nM.
